Key:
[1] = test system: ATXN3 transcripts containing exon 4; assay: ATXN3 quantitative splicing assay (qPCR, E4E5 transcripts containing exon 4); format: cell-based; conditions: Human neuroblastoma SK-N-MC cells, 24 h treatment, qPCR primers/probe E4E5
Outline: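 SK-N-MC neuroblastoma cells treated 24 h with compounds from 30 μM to 0.6 nM (0.3% DMSO), then lysed for cDNA synthesis. ATXN3 transcripts containing exon 4 quantified by TaqMan qPCR with E4E5 primers/probe; E8E9 set measured total ATXN3.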

total ATXN3 protein = assay: ATXN3 total protein assay (Mesoscale Discovery); format: cell-based; conditions: Human neuroblastoma SK-N-MC cells, 48 hours incubation, MSD assay
Outline: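 SK-N-MC neuroblastoma cells treated 48 hours with compound, 30 µM to 0.6 nM. Lysates assayed by MSD sandwich immunoassay with mouse capture and rabbit detection anti-ATXN3 antibodies; quantified against recombinant ATXN3 standards.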

Row | IC50 [1] | IC50 (total ATXN3 protein) | SMILES
1 | 0.501 to 5 µM | 0.501 to 5 µM | C[C@H](N)C(F)(F)c1sc2c(NCc3ccco3)snc2c1Cl [Compound 110, 7-[(S)-2-amino-1,1-difluoropropyl]-8-chloro-4-(furfurylamino)-3,6-dithia-2-azabicyclo[3.3.0]octa-1,4,7-triene]
2 | 0.501 to 5 µM | 0.501 to 5 µM | N[C@H](Cc1sc2c(NCc3ccco3)snc2c1Br)C(F)F [Compound 111, 7-[(R)-2-amino-3,3-difluoropropyl]-8-bromo-4-(furfurylamino)-3,6-dithia-2-azabicyclo[3.3.0]octa-1,4,7-triene]
3 | 10 to 40 µM | 10 to 40 µM | Brc1csc2c(NCc3cccs3)snc12 [Compound 113, (thenyl)(8-bromo-3,6-dithia-2-azabicyclo[3.3.0]octa-1,4,7-trien-4-yl)amine]
4 | 10 to 40 µM | 10 to 40 µM | COC(c1sc2c(NCc3cccs3)snc2c1Br)[C@H](C)N (stereo partly drawn) [Compound 114, 5-[(2S)-2-amino-1-methoxypropyl]-6-bromo-N-(thiophen-2-ylmethyl)thieno[3,2-c][1,2]thiazol-3-amine]

Second part, the molecule before the results:

Row | SMILES | IC50 [1] | IC50 (total ATXN3 protein)
5 | C[C@@H](F)[C@H](N)Cc1sc2c(NCc3nccs3)snc2c1Br [Compound 106, 7-[(2R,3R)-2-amino-3-fluorobutyl]-8-bromo-4-{[(1,3-thiazol-2-yl)methyl]amino}-3,6-dithia-2-azabicyclo[3.3.0]octa-1,4,7-triene] | 0.501 to 5 µM | 0.501 to 5 µM
6 | C[C@H](N)Cc1sc2c(NCc3cccs3)snc2c1-c1ccccc1 [Compound 128, 7-[(S)-2-aminopropyl]-8-phenyl-4-thenylamino-3,6-dithia-2-azabicyclo[3.3.0]octa-1,4,7-triene] | 10 to 40 µM | 10 to 40 µM
